Results published in PMC5693244 (European journal of medicinal chemistry, 2017).

Assays:
h-FPR2 [1] = molecular target: T1, h-FPR2 (Homo sapiens, UniProt P25090); conditions: previously characterized; ref [33]; cited from earlier work
T1 sequence (P25090 1-351): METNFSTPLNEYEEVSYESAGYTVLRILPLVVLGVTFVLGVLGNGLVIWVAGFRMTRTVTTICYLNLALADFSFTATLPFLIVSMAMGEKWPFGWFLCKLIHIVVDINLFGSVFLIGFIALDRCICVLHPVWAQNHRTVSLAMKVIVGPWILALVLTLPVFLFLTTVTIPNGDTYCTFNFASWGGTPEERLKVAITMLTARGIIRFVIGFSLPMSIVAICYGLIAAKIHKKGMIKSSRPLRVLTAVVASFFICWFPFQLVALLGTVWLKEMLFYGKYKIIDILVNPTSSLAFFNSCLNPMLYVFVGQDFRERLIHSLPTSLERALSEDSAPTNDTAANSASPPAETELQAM

[2] = Stability assays in rat liver microsomes; type: in vitro ADME; conditions: pH 7.4, Metabolic stability (% remaining), percent of parent compound remaining after 30-min incubation
h-FPR2 [3] = molecular target: T1, h-FPR2; assay: Ca2+ mobilization in FPR2-HL60 transfected cells; type: cell-based; conditions: for EC50, μM FPR2-HL60 / Agonist character (full/partial) at FPR2: Ca2+ mobilization; for EC50, μM FPR2-HL60: FPR2-HL60 cells
[4] = test system: NO production in rat microglial cell cultures; assay: NO release assay; type: cell-based; conditions: for Effect on LPS-increased NO level: LPS-stimulated, (S)-10 at 5 μM and 10 μM; for Effect on NO level: basal conditions
hCMEC/D3 cells = assay: Bidirectional transport across hCMEC/D3 cell monolayer; type: in vitro ADME, human; conditions: 100 μM, 2 h; for PappAB: apical-to-basolateral transport; for PappBA: basolateral-to-apical transport
[5] = test system: TNF-α production in rat microglial cell cultures; assay: TNF-α ELISA in rat microglial cell cultures; type: cell-based; conditions: for Effect on LPS-evoked TNF-α production / Block by WRW4 of effect on TNF-α: LPS-stimulated; for Effect on LPS-evoked TNF-α production: 0.5 to 10 μM; for Effect on TNF-α production: basal conditions, agonists 0.5 μM-10 μM; for Block by WRW4 of effect on TNF-α: pre-treatment with FPR2 antagonist WRW4
human neutrophils = assay: Ca2+ mobilization in human neutrophils; type: cell-based
[6] = test system: rat primary microglial cells; assay: Lactate dehydrogenase; type: cell-based; conditions: for Effect on LPS-induced cell death (LDH release): LPS-stimulated, pre-treatment 1 μM and 5 μM; for Effect on LDH release (cell death) / Effect on LDH release: basal conditions; for Effect on LDH release (cell death): 50 μM; for Effect on LDH release: 0.5–10 μM, 24 h
[7] = test system: IL-1β production in rat microglial cell cultures; assay: IL-1β ELISA in rat microglial cell cultures; type: cell-based; conditions: for Effect on LPS-evoked IL-1β production / Block by WRW4 of effect on IL-1β: LPS-stimulated; for Effect on LPS-evoked IL-1β production: 0.5 to 10 μM; for Block by WRW4 of effect on IL-1β: pre-treatment with FPR2 antagonist WRW4; for Effect on IL-1β production: basal conditions, agonists 0.5 μM-10 μM
[8] = test system: rat primary microglial cells; assay: MTT cell viability test in rat primary microglial cell cultures; type: cell-based; conditions: for Effect on metabolic activity (MTT) / Effect on conversion of MTT dye: basal conditions; for Effect on metabolic activity (MTT): 0.5–10 μM, 24 h; for Effect on conversion of MTT dye: 50 μM
h-FPR1 = molecular target: T2, h-FPR1 (Homo sapiens, UniProt P21462); assay: Ca2+ mobilization in FPR1-HL60 transfected cells; type: cell-based
T2 sequence (P21462 1-350): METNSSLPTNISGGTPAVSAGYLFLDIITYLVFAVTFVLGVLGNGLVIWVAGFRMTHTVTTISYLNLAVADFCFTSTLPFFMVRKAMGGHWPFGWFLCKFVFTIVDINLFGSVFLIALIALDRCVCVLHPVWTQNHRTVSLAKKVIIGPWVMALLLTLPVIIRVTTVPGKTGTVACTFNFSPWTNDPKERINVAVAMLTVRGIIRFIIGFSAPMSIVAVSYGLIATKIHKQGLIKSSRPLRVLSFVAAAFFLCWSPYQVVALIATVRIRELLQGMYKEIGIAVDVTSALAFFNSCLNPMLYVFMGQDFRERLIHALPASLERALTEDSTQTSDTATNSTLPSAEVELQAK

[9] = Bidirectional transport across hCMEC/D3 cell monolayer; type: in vitro ADME, human; conditions: human

O=C(Nc1ccc([N+](=O)[O-])cc1)N[C@H](Cc1c[nH]c2ccccc12)C(=O)NCC1(c2ccccc2)CC1 [(R)-6]
Interaction with FPR2 (intrinsic activity) (h-FPR2 [1]): weak FPR2 antagonist

O=C(Nc1ccc(F)cc1)N[C@H](Cc1c[nH]c2ccccc12)C(=O)NCC1(c2ccccc2)CC1 [(R)-8, (R)-2-[3-(4-Fluorophenyl)ureido]-3-(1H-indol-3-yl)-N-[(1-phenylcyclopropyl)methyl]propanamide]
remaining at 0.5 h, 10 μM [2]: 4%
EC50, μM FPR2-HL60 (h-FPR2 [3]): not able to induce Ca^2+ mobilization

O=C(Nc1ccccc1)N[C@H](Cc1c[nH]c2ccccc12)C(=O)NCC1(c2ccccc2)CC1 [(R)-9, (R)-3-(1H-Indol-3-yl)-N-[(1-phenylcyclopropyl)methyl]-2-[3-(phenyl)ureido]propanamide]
EC50, μM FPR2-HL60 (h-FPR2 [3]): not able to induce Ca^2+ mobilization

N#Cc1ccc(C[C@@H](NC(=O)Nc2ccc([N+](=O)[O-])cc2)C(=O)NCC2(c3ccccc3)CC2)cc1 [(R)-10, (R)-3-(4-Cyanophenyl)-2-[3-(4-nitrophenyl)ureido]-N-[(1-phenylcyclopropyl)methyl]propanamide]
Agonist character (full/partial) at FPR2 (h-FPR2 [3]): full agonists

O=C(Nc1ccc([N+](=O)[O-])cc1)N[C@H](Cc1cccnc1)C(=O)NCC1(c2ccccc2)CC1 [(R)-11, (R)-2-[3-(4-Nitrophenyl)ureido]-N-[(1-phenylcyclopropyl)methyl]-3-(3-pyridinyl)-propanamide]
Effect on LPS-increased NO level [4]: no effect was observed
Effect on NO level [4]: did not induce any change in NO level
PappAB (hCMEC/D3 cells): 11924.5 ×10⁻⁶ cm/s
PappBA (hCMEC/D3 cells): 43754.4 ×10⁻⁶ cm/s
Effect on LPS-evoked TNF-α production [5]: effectively decrease LPS-evoked cytokine production
Effect on TNF-α production [5]: did not induce any change
Agonist character (full/partial) at FPR2 (h-FPR2 [3]): partial agonists
EC50, μM Neutrophils (human neutrophils): submicromolar range
Effect on LPS-induced cell death (LDH release) [6]: effectively blocked LPS-induced cell death processes
Effect on LDH release (cell death) [6]: significant increase in death processes
Effect on LDH release [6]: None of the compounds induced significant effects
Effect on LPS-evoked IL-1β production [7]: effectively decrease LPS-evoked cytokine production
Block by WRW4 of effect on IL-1β [7]: able to block the effect
Effect on IL-1β production [7]: did not induce any change
Effect on metabolic activity (MTT) in LPS-stimulated cells [8]: no effect was observed on metabolic activity
Effect on metabolic activity (MTT) [8]: None of the compounds induced significant effects

Cc1ccc(C2(CNC(=O)[C@@H](Cc3ccc(C#N)cc3)NC(=O)Nc3ccc(F)cc3)CC2)cc1F [(R)-15, (R)-3-(4-Cyanophenyl)-N-[[1-(3-fluoro-4-methylphenyl)cyclopropyl]methyl]-2-[3-(4-fluorophenyl)ureido]propanamide]
remaining at 0.5 h, 10 μM [2]: > 20%

COc1ccc(NC(=O)N[C@H](Cc2ccc(C#N)cc2)C(=O)NCC2(c3ccc(F)c(Cl)c3)CC2)cc1 [(R)-16, (R)-N-[[1-(3-Chloro-4-fluorophenyl)cyclopropyl]methyl]-3-(4-cyanophenyl)-2-[3-(4-methoxyphenyl)ureido]propanamide]
Agonist character (full/partial) at FPR1 (h-FPR1): potent FPR1 full agonists

N#Cc1ccc(C[C@@H](NC(=O)Nc2ccc(F)cc2)C(=O)NCC2(c3ccc(F)c(Cl)c3)CC2)cc1 [(R)-17, (R)-3-(4-Cyanophenyl)-N-[[1-(3-chloro-4-fluorophenyl)cyclopropyl]methyl]-2-[3-(4-fluorophenyl)ureido]propanamide]
remaining at 0.5 h, 10 μM [2]: > 20%

COc1ccc(NC(=O)N[C@@H](Cc2c[nH]c3ccccc23)C(=O)NCC2(c3ccccc3)CC2)cc1 [(S)-7, (S)-3-(1H-Indol-3-yl)-2-[3-(4-methoxyphenyl)ureido]-N-[(1-phenylcyclopropyl)methyl] propanamide]
Agonist character (full/partial) at FPR1 (h-FPR1): full agonist
Agonist character (full/partial) at FPR2 (h-FPR2 [3]): full agonist

O=C(Nc1ccc(F)cc1)N[C@@H](Cc1c[nH]c2ccccc12)C(=O)NCC1(c2ccccc2)CC1 [(S)-8, (S)-2-[3-(4-Fluorophenyl)ureido]-3-(1H-indol-3-yl)-N-[(1-phenylcyclopropyl)methyl]propanamide]
Agonist character (full/partial) at FPR2 (h-FPR2 [3]): partial agonists

O=C(Nc1ccccc1)N[C@@H](Cc1c[nH]c2ccccc12)C(=O)NCC1(c2ccccc2)CC1 [(S)-9, (S)-3-(1H-Indol-3-yl)-N-[(1-phenylcyclopropyl)methyl]-2-[3-(phenyl)ureido]propanamide]
Agonist character (full/partial) at FPR2 (h-FPR2 [3]): partial agonists

N#Cc1ccc(C[C@H](NC(=O)Nc2ccc([N+](=O)[O-])cc2)C(=O)NCC2(c3ccccc3)CC2)cc1 [(S)-10, (S)-3-(4-Cyanophenyl)-2-[3-(4-nitrophenyl)ureido]-N-[(1-phenylcyclopropyl)methyl]propanamide]
Effect on LPS-increased NO level [4]: significantly attenuated
Effect on NO level [4]: did not induce any change in NO level
PappBA (hCMEC/D3 cells): 25303.3 ×10⁻⁶ cm/s
Effect on LPS-evoked TNF-α production [5]: effectively decrease LPS-evoked cytokine production
Block by WRW4 of effect on TNF-α [5]: did not abolish the observed effect
Effect on TNF-α production [5]: did not induce any change
Agonist character (full/partial) at FPR2 (h-FPR2 [3]): full agonists
Increase in agonist potency compared to (S)-6 (h-FPR2 [3]; FPR2, (S)-10 compared to (S)-6): 10 fold
Effect on LPS-induced cell death (LDH release) [6]: effectively blocked LPS-induced cell death processes
Effect on LDH release (cell death) [6]: significant increase in death processes
Effect on LDH release [6]: None of the compounds induced significant effects
Effect on LPS-evoked IL-1β production [7]: effectively decrease LPS-evoked cytokine production
Block by WRW4 of effect on IL-1β [7]: did not abolish the observed effect
Effect on IL-1β production [7]: did not induce any change
Effect on metabolic activity (MTT) in LPS-stimulated cells [8]: no effect was observed on metabolic activity
Effect on conversion of MTT dye [8]: decreased the conversion of MTT dye
Effect on metabolic activity (MTT) [8]: None of the compounds induced significant effects

O=C(Nc1ccc([N+](=O)[O-])cc1)N[C@@H](Cc1cccnc1)C(=O)NCC1(c2ccccc2)CC1 [(S)-11, (S)-2-[3-(4-Nitrophenyl)ureido]-N-[(1-phenylcyclopropyl)methyl]-3-(3-pyridinyl)-propanamide]
EC50, μM FPR1-HL60 (h-FPR1; FPR1-HL60 cells): low micromolar range
Agonist character (full/partial) at FPR2 (h-FPR2 [3]): partial agonists

COc1ccc(NC(=O)N[C@@H](Cc2ccc(C#N)cc2)C(=O)NCC2(c3ccc(F)c(Cl)c3)CC2)cc1 [(S)-16, (S)-N-[[1-(3-Chloro-4-fluorophenyl)cyclopropyl]methyl]-3-(4-cyanophenyl)-2-[3-(4-methoxyphenyl)ureido]propanamide]
Agonist character (full/partial) at FPR1 (h-FPR1): potent FPR1 full agonists

N#Cc1ccc(C[C@H](NC(=O)Nc2ccc(F)cc2)C(=O)NCC2(c3ccc(F)c(Cl)c3)CC2)cc1 [(S)-17, (S)-3-(4-Cyanophenyl)-N-[[1-(3-chloro-4-fluorophenyl)cyclopropyl]methyl]-2-[3-(4-fluorophenyl)ureido]propanamide]
Effect on LPS-increased NO level [4]: no effect was observed
Effect on NO level [4]: did not induce any change in NO level
PappAB (hCMEC/D3 cells): 14552.1 ×10⁻⁶ cm/s
PappBA (hCMEC/D3 cells): 37598.1 ×10⁻⁶ cm/s
efflux ratio at 2 h, 100 μM [9]: < 3
Effect on LPS-evoked TNF-α production [5]: effectively decrease LPS-evoked cytokine production
Block by WRW4 of effect on TNF-α [5]: able to block the effect
Effect on TNF-α production [5]: did not induce any change
remaining at 0.5 h, 10 μM [2]: > 20%
EC50, μM Neutrophils (human neutrophils): submicromolar range
Effect on LPS-induced cell death (LDH release) [6]: effectively blocked LPS-induced cell death processes
Effect on LDH release (cell death) [6]: significant increase in death processes
Effect on LDH release [6]: None of the compounds induced significant effects
Effect on LPS-evoked IL-1β production [7]: effectively decrease LPS-evoked cytokine production
Block by WRW4 of effect on IL-1β [7]: able to block the effect
Effect on IL-1β production [7]: did not induce any change
Effect on metabolic activity (MTT) in LPS-stimulated cells [8]: no effect was observed on metabolic activity
Effect on conversion of MTT dye [8]: decreased the conversion of MTT dye
Effect on metabolic activity (MTT) [8]: None of the compounds induced significant effects
